# Test results as given in ChEMBL document CHEMBL1130901, “Halohydrin analogues of cryptophycin 1: synthesis and biological activity” (Bioorg Med Chem Lett, 1998).
# Key:
# [1] = Half life in PEM buffer at pH 7.4; assay type: ADME
# [2] = Half life in phosphate buffer at pH 7.4; assay type: ADME
# [3] = Tested in vitro for the concentration that reduces the amount of pelleted protein by 50% in microtubule assembly assay.; assay type: functional
SMILES,half-life [1] [min],half-life [2] [min],ED50 [3] [mM]
COc1ccc(C[C@H]2NC(=O)/C=C/C[C@@H]([C@H](C)[C@@H](O)[C@@H](Br)c3ccccc3)OC(=O)[C@H](CC(C)C)OC(=O)[C@H](C)CNC2=O)cc1Cl,3.7,11,
COc1ccc(C[C@H]2NC(=O)/C=C/C[C@@H]([C@H](C)[C@@H](O)[C@@H](I)c3ccccc3)OC(=O)[C@H](CC(C)C)OC(=O)[C@H](C)CNC2=O)cc1Cl,< 1,2.5,
COc1ccc(C[C@H]2NC(=O)/C=C/C[C@@H]([C@H](C)[C@@H](O)[C@@H](Cl)c3ccccc3)OC(=O)[C@H](CC(C)C)OC(=O)[C@H](C)CNC2=O)cc1Cl,75,660,7.5
